Measured values from article PMC12608320, “Insecticidal Potential of Aniba canelilla (H.B.K.) Mez Essential Oil Against Aedes aegypti: Larvicidal and Adulticidal Activities, Mechanism of Action, and Formulation Development” (Plants, 2025).
Converted amounts (≈) assume the structure as drawn. “And” between values parts separate entries of the source, which are not always exact repeats. Equal values may be shown once.

Assays:
A. aegypti = settings: cited from earlier work
Artemia salina = settings: cited from earlier work
Aedes aegypti larvae = assay: Larvicidal activity against Aedes aegypti third instar larvae; settings: for LC50 ± SEM (LCL-UCL): L3 larvae
Procedure: Eggs of the Rockefeller strain of Aedes aegypti were hatched in filtered water, and larvae were reared under controlled conditions (28 ± 1 °C; 12 h photoperiod) until reaching the third instar (L3). […] Each test condition, including controls, was run in quadruplicate. […] Formulations (PEOANIB, PNFTANE, PNFTENE) were applied with the same protocol used for DMSO-dissolved samples, keeping the final solvent concentration at 1% (v/v) of the total water volume.
Negative controls contained either DMSO (200 µL) alone or blank nanomicelles (NBr) at a volume matching the highest concentration tested, whereas the positive control comprised temephos at 1 µg mL^−1. After 14 days of preparation of the formulation, an activity confirmation test was performed at fixed concentrations of PNFTANE (70 ppm) and PNFTENE (5 ppm) formulations. The assays were performed in quadruplicate.

Leishmania amazonensis = system: Leishmania amazonensis; design: method as in doi:10.1590/S0103-50532009000600011; settings: cited from earlier work
[1] = biological target: T1, acetylcholinesterase from D. melanogaster adults homogenate (Drosophila melanogaster, UniProt P07140); assay: AChE inhibition (Ellman), D. melanogaster adult homogenate; type: biochemical; settings: for inhibition at 1500 µg/mL: at 1.5 mg∙mL^−1 (1500 µg mL^−1), read-out: Inhibition Rate (%) ± SD
T1 construct: from tissue; host or cells: whole-body homogenate supernatant of adult D. melanogaster (laboratory colony)
Procedure: (§1) A total of 250 third instar larvae (370.1 mg) and 250 adults (163.8 mg) of A. aegypti, together with 150 adults of D. melanogaster (134.6 mg), were collected. Each group was placed in a separate 50 mL Falcon tube and frozen at −20 °C to arrest metabolic activity. After freezing, 5 mL of ultrapure water were added to each tube, and the contents were mechanically homogenized on ice using an IKA Ultra-Turrax® homogenizer (model T10BS32) at speed setting 4 for 5 min. The resulting homogenates were transferred to centrifuge tubes and spun at 10,000 rpm for 5 min at 4 °C in a refrigerated centrifuge. Supernatants were carefully collected, aliquoted and stored at −20 °C for biochemical analyses performed within 24 h. After preparation, the homogenates contained 50 insects/mL (larvae) and 30 insects/mL (adult Aedes aegypti and Drosophila melanogaster). These preparations were subsequently used for acetylcholinesterase inhibition activity, total-protein quantification by the BCA method, and calculation of specific catalytic units per individual.
(§2) Percentage inhibition of AChE was determined by the standard Ellman colorimetric method, with minor adaptations. […] After a 10 min incubation at 30 °C, 20 µL of DTNB (3.0 mM) and 20 µL of acetylthiocholine iodide (10.0 mM) were added. Plates were then incubated for a further 30 min at 30 °C, and end-point absorbance was read at 405 nm and pathlength 0.62 cm on a SpectraMax® 190 microplate reader (Molecular Devices^TM, SoftMax® Pro 5; serial no. SMP500-11007-TIQG).

[2] = biological target: T2, Acetylcholinesterase (AChE) from Electrophorus electricus (Electrophorus electricus, UniProt O42275); assay: AChE inhibition (Ellman), commercial enzyme; type: biochemical; settings: for IC50: commercial enzyme 0.15 U mL^−1
T2 construct: purchased C3389-2KU
Procedure: as §2

Artemia salina nauplii = assay: Toxicity test on Artemia salina nauplii (non-target); type: in vivo; settings: 24 h, metanauplii
Procedure: Toxicity assays with Artemia salina followed the procedure of Meyer and collaborators with adaptations like those of [86, 107]. For cyst hatching, 25 mg of eggs were placed in a cuboid-glass vessel containing 600 mL of artificial seawater (38 g L^−1 in distilled water) and incubated at 28–30 °C under continuous illumination from a 40 W incandescent lamp. After 24 h, the nauplii (first larval stage) were transferred to fresh saline and reared for an additional 24 h under the same conditions to obtain metanauplii (second larval stage), which were used in the bioassays. Ten metanauplii were exposed to 10 mL of saline containing the test samples dissolved in DMSO. […] After dosing, organisms were maintained at 28–30 °C under artificial light for 24 h. Mortality defined as immobility or sinking to the bottom was recorded, and LC50 values were calculated for each sample. All experiments were performed in triplicate with independent replicates under identical conditions to ensure reproducibility.

Aedes aegypti females = assay: Adulticidal bottle bioassay (WHO/CDC) against Aedes aegypti females; type: in vivo; settings: preliminary tests
Procedure: A. aegypti colony was maintained at 26 ± 1 °C, 80 ± 5% relative humidity, and a 12 h light–dark cycle. […] Glass bottles (295 mL) were coated with 1 mL of essential oil solution in analytical-grade acetone. Bottles were left open for 10 min to allow complete solvent evaporation, then acclimated for 1 h with the cap removed. Each bottle received 15–25 unfed adult female A. aegypti and was exposed to 200–50 ppm of the test compound. Deltamethrin (K-Othrine®) at 10 ppm served as the positive control, and acetone-treated bottles as the negative control. Assays were conducted in quadruplicate, with mortality recorded at 15 min intervals over 90 min of continuous exposure. After 90 min, mosquitoes were gently transferred to 500 mL cylindrical paper containers covered with nylon mesh and kept under colony conditions (26 °C, 80% RH, 12 h photoperiod) for knockdown assessment 24 h post-exposure.

[3] = biological target: acetylcholinesterase from A. aegypti larvae homogenate (Aedes aegypti, UniProt Q6A2E2); assay: AChE inhibition (Ellman), A. aegypti L3 larvae homogenate; type: biochemical; settings: for inhibition at 1500 µg/mL: at 1.5 mg∙mL^−1 (1500 µg mL^−1), read-out: Inhibition Rate (%) ± SD
Procedure: as §1, §2

[4] = biological target: acetylcholinesterase from A. aegypti adults homogenate (Aedes aegypti, UniProt Q6A2E2); assay: AChE inhibition (Ellman), A. aegypti adult homogenate; type: biochemical; settings: for inhibition at 1500 µg/mL: at 1.5 mg∙mL^−1 (1500 µg mL^−1), read-out: Inhibition Rate (%) ± SD
Procedure: as §1, §2

Trypanosoma evansi = system: Trypanosoma evansi; design: method as in PMID 27988226; settings: at 0.5–2.0%; cited from earlier work
[5] = design: method as in PMID 20406629; settings: Wistar rats, 5–10 mg/kg; cited from earlier work
macrophages = system: macrophages; design: method as in doi:10.1590/S0103-50532009000600011; settings: cited from earlier work

SMILES: C=C1CC/C=C(\C)CC[C@@H]2[C@@H]1CC2(C)C [β-caryophyllene]
- LC50 (adulticidal activity of minor constituents) (A. aegypti): 26 ppm

SMILES: CCCSP(=O)(OCC)Oc1ccc(Br)cc1Cl (centres unmarked) [profenofos]
- LC50 (Artemia salina): 7.71 ppm

SMILES: CCOP(=S)(OCC)Oc1nc(Cl)c(Cl)cc1Cl [chlorpyrifos]
- LC50 (Artemia salina): 0.38 ppm

SMILES: COP(=S)(OC)Oc1ccc(Sc2ccc(OP(=S)(OC)OC)cc2)cc1 [Temephos, reference compound]
- mortality at 1 ppm (Aedes aegypti larvae; Aedes aegypti, read-out: larval mortality): 100%

SMILES: N=C(N)c1ccc(OCCCCCOc2ccc(C(=N)N)cc2)cc1 [pentamidine, reference compound]
- IC50 (Leishmania amazonensis): 4.8 µg/mL (≈ 14.1 µM)

SMILES: O=[N+]([O-])C=Cc1ccccc1 [NFTENE, 1-Nitro-2-phenylethene]
- IC50 [1]: 21 mM
- Slope ± SEM [1]: 2.02 ± 0.20
- inhibition at 500 µg/mL ([1]; 500 μg.mL^−1): 2.4%
- inhibition at 1000 µg/mL ([1]; 1000 μg.mL^−1): 9.1%
- inhibition at 1500 µg/mL [1]: 18.4 ± 2.11%
- Slope ± SEM [2]: 1.283 ± 0.094
- IC50 [2]: 0.998 mM
- LC50 ± SEM (CI) (Artemia salina nauplii): 1.9 ppm
- adult mortality (Aedes aegypti females; 100 ppm): no adult mortality
- Slope ± SEM [3]: 0.72 ± 0.06
- inhibition at 25 µg/mL ([3]; 25 μg.mL^−1): 15.5%
- inhibition at 50 µg/mL ([3]; 50 μg.mL^−1): 14.9%
- inhibition at 100 µg/mL ([3]; 100 μg.mL^−1): 23.1%
- inhibition at 250 µg/mL ([3]; 250 μg.mL^−1): 26.8%
- inhibition at 500 µg/mL ([3]; 500 μg.mL^−1): 38%
- inhibition at 1000 µg/mL ([3]; 1000 μg.mL^−1): 57.1%
- inhibition at 1500 µg/mL [3]: 71.8 ± 2.21%
- LC50 ± SEM (LCL-UCL) (Aedes aegypti larvae; 24 h exposure): 10.9 ppm
- LC50 ± SEM (LCL-UCL) (Aedes aegypti larvae; 48 h exposure): 7.7 ppm
- Slope ± SEM [4]: 0.86 ± 0.07
- inhibition at 100 µg/mL ([4]; 100 μg.mL^−1): 4.5%
- inhibition at 250 µg/mL ([4]; 250 μg.mL^−1): 11.2%
- inhibition at 500 µg/mL ([4]; 500 μg.mL^−1): 15.1%
- inhibition at 1000 µg/mL ([4]; 1000 μg.mL^−1): 26.6%
- inhibition at 1500 µg/mL [4]: 34 ± 2.18%

SMILES: O=[N+]([O-])CCc1ccccc1 [NFTANE, 1-Nitro-2-phenylethane]
- activity against Trypanosoma evansi (Trypanosoma evansi): shows activity
- inhibition at 1500 µg/mL [1]: ≤ 10%
- effect on blood pressure [5]: significantly lowering blood pressure
- fold less cytotoxic to macrophages than pentamidine (macrophages): approximately 2.5 fold
- Slope ± SEM [2]: 1.175 ± 0.066
- IC50 [2]: 1.25 mM
- IC50 (Leishmania amazonensis): 40 µg/mL (≈ 265 µM)
- adulticidal effects compared with EOANIB (Aedes aegypti females): comparable adulticidal effects to EOANIB
- inhibition at 1500 µg/mL [3]: ≤ 10%
- LC50 ± SEM (LCL-UCL) (Aedes aegypti larvae; 24 h exposure): 84.8 ppm and 85.8 ppm
- LC50 ± SEM (LCL-UCL) (Aedes aegypti larvae; 48 h exposure): 83.6 ppm
- LC50 (Aedes aegypti larvae; exposure time not given): 84–87 ppm
- inhibition at 1500 µg/mL [4]: ≤ 10%

SMILES: CC1=CCC2CC1C2(C)C (stereo not drawn) [α-pinene]
- LC50 (adulticidal activity of minor constituents) (A. aegypti): 17.3–56.5 ppm
